Measurements as given in patent US20250114359A1, “METHODS FOR […] G[…]/OR HEXOKINASE” (UNIVERSITY OF SOUTH CAROLINA, priority 2023, published 2025).

Biological target: Trypanosoma cruzi glucokinase (TcGlcK) (Trypanosoma cruzi, UniProt Q4E4E1)
Assay: Determination of Ki values by type 1 and type 2 Dixon plots;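 also: compounds supplied as 10 mM DMSO stocks (100 µL format), with a non-inhibitory compound run alongside for comparison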
Type: biochemical
Description: The inhibition constant can be determined by development of a Dixon plot (either type 1 or type 2) according to standard practice, and as utilized herein refers to the inhibitor concentration at which half maximum inhibition is determined for a 100 μL/10 mM format in DMSO.
Determination of the Ki values for inhibitors was performed by creation of both type 1 and type 2 Dixon plots. The format included 100 μL/10 mM in DMSO.

Sequence of Trypanosoma cruzi glucokinase (TcGlcK) (Q4E4E1 1-376): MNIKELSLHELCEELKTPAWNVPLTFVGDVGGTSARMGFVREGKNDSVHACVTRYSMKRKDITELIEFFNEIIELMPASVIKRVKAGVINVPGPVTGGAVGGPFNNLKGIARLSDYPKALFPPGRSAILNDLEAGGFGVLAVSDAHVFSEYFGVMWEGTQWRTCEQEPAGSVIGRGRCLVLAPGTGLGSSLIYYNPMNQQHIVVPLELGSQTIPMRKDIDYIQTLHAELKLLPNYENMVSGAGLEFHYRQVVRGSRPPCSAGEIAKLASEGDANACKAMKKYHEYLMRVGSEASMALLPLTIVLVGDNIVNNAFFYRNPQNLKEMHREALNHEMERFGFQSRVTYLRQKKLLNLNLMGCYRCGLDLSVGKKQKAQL

`Cc1cc2c(C(C)C)c(O)c(O)c(/C=N/NC(=O)C(C)C)c2c(O)c1-c1c(C)cc2c(C(C)C)c(O)c(O)c(/C=N/NC(=O)C(C)C)c2c1O` [Inhibitor 6] was tested, and the Ki was 30.2 µM.
`Cc1cc2c(c(O)c1-c1c(C)cc3c(c1O)C(C=C1C(=O)NC(=O)NC1=O)C(=O)C(O)=C3C(C)C)C(C=C1C(=O)NC(=O)NC1=O)C(=O)C(O)=C2C(C)C` (centres unmarked) [Inhibitor 32] was tested, and the Ki was 10.6 µM.
With `CN(C)c1ccc(/C=C2/SC(=S)NC2=O)cc1` [Inhibitor 68] the Ki was 0.27 µM.
`Cc1cc2nc[nH]c2c(/N=C/c2c(O)c(O)c(C(C)C)c3cc(C)c(-c4c(C)cc5c(C(C)C)c(O)c(O)c(/C=N/c6c(C)c(C)cc7nc[nH]c67)c5c4O)c(O)c23)c1C` (atropisomer, axis not shown) [Inhibitor 86] was tested, and the Ki was 2.58 µM.
`Cc1ccc(OCC/N=C/c2c(O)c(O)c(C(C)C)c3cc(C)c(-c4c(C)cc5c(C(C)C)c(O)c(O)c(/C=N/CCOc6ccc(C)cc6)c5c4O)c(O)c23)cc1` [Inhibitor 10] was tested, and the Ki was 3.4 µM.
With `Cc1cc2c(C(C)C)c(O)c(O)c(/C=N/CCOc3ccc4c(c3)CCC4)c2c(O)c1-c1c(C)cc2c(C(C)C)c(O)c(O)c(/C=N/CCOc3ccc4c(c3)CCC4)c2c1O` (atropisomer, axis not shown) [Inhibitor 82] the Ki was 98.9 µM.
`Cc1cc2c(c(O)c1-c1c(C)cc3c(c1O)/C(=C/NCCO)C(=O)C(O)=C3C(C)C)/C(=C/NCCO)C(=O)C(O)=C2C(C)C` (atropisomer, axis not shown) [Inhibitor 13] gave a Ki of 422 µM.
Molecule `CCCSCC/N=C/c1c(O)c(O)c(C(C)C)c2cc(C)c(-c3c(C)cc4c(C(C)C)c(O)c(O)c(/C=N/CCSCC)c4c3O)c(O)c12` (atropisomer, axis not shown) [Inhibitor 83] has a Ki of 84.5 µM.
`CCCC(CCC)/N=C/c1c(O)c(O)c(C(C)C)c2cc(C)c(-c3c(C)cc4c(C(C)C)c(O)c(O)c(/C=N/C(CCC)CCC)c4c3O)c(O)c12` (atropisomer, axis not shown) [Inhibitor 46] showed a Ki of 99.1 µM.
`COc1ccc(OC)c(/N=C/c2c(O)c(O)c(C(C)C)c3cc(C)c(-c4c(C)cc5c(C(C)C)c(O)c(O)c(/C=N/c6cc(OC)ccc6OC)c5c4O)c(O)c23)c1` [Inhibitor 11] gave a Ki of 30.5 µM.
`Cc1cc(C)cc(OCC(=O)C/N=C/c2c(O)c(O)c(C(C)C)c3cc(C)c(-c4c(C)cc5c(C(C)C)c(O)c(O)c(/C=N/NC(=O)COc6cc(C)cc(C)c6)c5c4O)c(O)c23)c1` [Inhibitor 3] gave a Ki of 60.4 µM.
In the case of `COc1cc(/C=N/c2c(C)n(C)n(-c3ccccc3)c2=O)ccc1O` [Inhibitor 62], the Ki is reported as 19.9 µM.
`Cc1cc2c(C(C)C)c(O)c(O)c(/C=N/Nc3nc4ccccc4[nH]c3=O)c2c(O)c1-c1c(C)cc2c(C(C)C)c(O)c(O)c(/C=N/Nc3nc4ccccc4[nH]c3=O)c2c1O` [Inhibitor 7] was tested, and the Ki was 3.83 µM.
Molecule `Cc1ccc(OCC/N=C/c2c(O)c(O)c(C(C)C)c3cc(C)c(-c4c(C)cc5c(C(C)C)c(O)c(O)c(/C=N/CCOc6ccc(C)cc6Br)c5c4O)c(O)c23)c(Br)c1` (atropisomer, axis not shown) [Inhibitor 77] has a Ki of 42.3 µM.
